According to patent US20230085307A1, “PYRIDAZINONE COMPOUND AND HERBICIDE” (NISSAN CHEMICAL CORPORATION, priority 2019, published 2023):

Key:
lambsquarters [1] = assay: Test Example 5: herbicidal effect by foliage application, plastic box (Table 20, symbol O); assay type: in vivo, lambsquarters (Chenopodium album); details: foliage application, 320 g/ha
Method in brief: (§1)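 Sow seeds spot-wise in sterilized diluvial soil; cover with ~1.5 cm soil. Grow 14 days in greenhouse, 25° C. to 30° C. Spray foliage with emulsion diluted to predetermined amount. Rate effect after 3 weeks.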

Italian ryegrass [2] = assay: Test Example 5: herbicidal effect by foliage application, plastic box (Table 20, symbol K); assay type: in vivo, Italian ryegrass (Lolium multiflorum); details: foliage application, 320 g/ha
Method in brief: as §1

oval-leafed pondweed = assay: Test Example 1: herbicidal activity, application before weed generation under submerged conditions (Table 16, symbol C); assay type: in vivo, oval-leafed pondweed (Monochoria vaginalis)
Method in brief: (§2)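 Alluvial soil was flooded to 4 cm depth, weed seeds were sown mixed and 2.5-leaf rice seedlings were transplanted. On sowing day, the compound's emulsion, diluted in water to a set dose, was applied to the water surface. Plants grew at 25–30 °C and were scored 0–5 after three weeks.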

windgrass [3] = assay: Test Example 5: herbicidal effect by foliage application, plastic box (Table 20, symbol L); assay type: in vivo, windgrass (Apera spica-venti); details: foliage application, 320 g/ha
Method in brief: as §1

velvetleaf [4] = assay: Test Example 4: herbicidal effect by soil treatment (Table 19, symbol M); assay type: in vivo, velvetleaf (Abutilon theophrasti)
Method in brief: (§3)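 Soil-surface application: an emulsion agent diluted with water to the predetermined dose is sprayed uniformly over seeds lying under roughly 1.5 cm of sterilized diluvial soil. Boxes stay in a greenhouse at 25° C. to 30° C. Three weeks later, each species is graded on previously defined criteria.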

green foxtail [5] = assay: Test Example 5: herbicidal effect by foliage application, plastic box (Table 20, symbol G); assay type: in vivo, green foxtail (Setaria viridis); details: foliage application, 320 g/ha
Method in brief: as §1

persian speedwell [6] = assay: Test Example 4: herbicidal effect by soil treatment (Table 19, symbol R); assay type: in vivo, Persian speedwell (Veronica persica)
Method in brief: as §3

redroot pigweed = assay: Test Example 4: herbicidal effect by soil treatment (Table 19, symbol N); assay type: in vivo, redroot pigweed (Amaranthus retroflexus)
Method in brief: as §3

lambsquarters [7] = assay: Test Example 4: herbicidal effect by soil treatment (Table 19, symbol O); assay type: in vivo, lambsquarters (Chenopodium album)
Method in brief: as §3

velvetleaf [8] = assay: Test Example 5: herbicidal effect by foliage application, plastic box (Table 20, symbol M); assay type: in vivo, velvetleaf (Abutilon theophrasti); details: foliage application, 320 g/ha
Method in brief: as §1

Japanese bulrush = assay: Test Example 1: herbicidal activity, application before weed generation under submerged conditions (Table 16, symbol B); assay type: in vivo, Japanese bulrush (Schoenoplectus juncoides)
Method in brief: as §2

Italian ryegrass [9] = assay: Test Example 4: herbicidal effect by soil treatment (Table 19, symbol K); assay type: in vivo, Italian ryegrass (Lolium multiflorum)
Method in brief: as §3

windgrass [10] = assay: Test Example 4: herbicidal effect by soil treatment (Table 19, symbol L); assay type: in vivo, windgrass (Apera spica-venti)
Method in brief: as §3

rice flat sedge = assay: Test Example 3: herbicidal effect by foliage application, Wagner pot (Table 18, symbol E); assay type: in vivo, rice flat sedge (Cyperus iria); details: 320 g/ha
Method in brief: (§4)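 Plants were sown in alluvial soil held under 0.1–0.5 cm standing water and grown 14 days in a greenhouse at 25–30 °C. An emulsifiable formulation, water-diluted to the set dose, was then sprayed onto the foliage, and effects were scored three weeks later using previously defined criteria.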

persian speedwell [11] = assay: Test Example 5: herbicidal effect by foliage application, plastic box (Table 20, symbol R); assay type: in vivo, Persian speedwell (Veronica persica); details: foliage application, 320 g/ha
Method in brief: as §1

wild oat [12] = assay: Test Example 4: herbicidal effect by soil treatment (Table 19, symbol I); assay type: in vivo, wild oat (Avena fatua)
Method in brief: as §3

blackgrass [13] = assay: Test Example 5: herbicidal effect by foliage application, plastic box (Table 20, symbol J); assay type: in vivo, blackgrass (Alopecurus myosuroides); details: foliage application, 320 g/ha
Method in brief: as §1

southern crabgrass [14] = assay: Test Example 4: herbicidal effect by soil treatment (Table 19, symbol F); assay type: in vivo, southern crabgrass (Digitaria ciliaris)
Method in brief: as §3

barnyard grass [15] = assay: Test Example 4: herbicidal effect by soil treatment (Table 19, symbol H); assay type: in vivo, barnyard grass (Echinochloa crus-galli)
Method in brief: as §3

barnyard grass [16] = assay: Test Example 5: herbicidal effect by foliage application, plastic box (Table 20, symbol H); assay type: in vivo, barnyard grass (Echinochloa crus-galli); details: foliage application, 320 g/ha
Method in brief: as §1

green foxtail [17] = assay: Test Example 4: herbicidal effect by soil treatment (Table 19, symbol G); assay type: in vivo, green foxtail (Setaria viridis)
Method in brief: as §3

chickweed = assay: Test Example 4: herbicidal effect by soil treatment (Table 19, symbol P); assay type: in vivo, common chickweed (Stellaria media)
Method in brief: as §3

barnyard grass [18] = assay: Test Example 3: herbicidal effect by foliage application, Wagner pot (Table 18, symbol H); assay type: in vivo, barnyard grass (Echinochloa crus-galli); details: 320 g/ha
Method in brief: as §4

blackgrass [19] = assay: Test Example 4: herbicidal effect by soil treatment (Table 19, symbol J); assay type: in vivo, blackgrass (Alopecurus myosuroides)
Method in brief: as §3

Chinese sprangletop = assay: Test Example 3: herbicidal effect by foliage application, Wagner pot (Table 18, symbol D); assay type: in vivo, chinese sprangletop (Leptochloa chinensis); details: 320 g/ha
Method in brief: as §4

late watergrass = assay: Test Example 1: herbicidal activity, application before weed generation under submerged conditions (Table 16, symbol A); assay type: in vivo, late watergrass (Echinochloa oryzicola)
Method in brief: as §2

wild oat [20] = assay: Test Example 5: herbicidal effect by foliage application, plastic box (Table 20, symbol I); assay type: in vivo, wild oat (Avena fatua); details: foliage application, 320 g/ha
Method in brief: as §1

southern crabgrass [21] = assay: Test Example 5: herbicidal effect by foliage application, plastic box (Table 20, symbol F); assay type: in vivo, southern crabgrass (Digitaria ciliaris); details: foliage application, 320 g/ha
Method in brief: as §1

[22] = amount of applied herbicide 320 g/ha

CCCCCCOc1ccc(-c2sc3ccc(F)cc3c2-c2c(OC(=O)CCC)c(C)nn(C)c2=O)cc1 [2-041]
effect on lambsquarters (O) (lambsquarters [1]; 3 weeks after application): 3 (Herbicidal rate of 40% or more and less than 70%)
effect on Italian ryegrass (K) (Italian ryegrass [2]; 3 weeks after application): 0 (Herbicidal rate of 5% or less (almost no effect))
Herbicidal effect on C: oval-leafed pondweed (grade 0-5) (oval-leafed pondweed; 320 g/ha applied herbicide): 0 (Herbicidal rate of 5% or less (almost no effect))
effect on windgrass (L) (windgrass [3]; 3 weeks after application): 0 (Herbicidal rate of 5% or less (almost no effect))
herbicidal effect rating, M: velvetleaf (velvetleaf [4]; 320 g/ha): 0 (Herbicidal rate of 5% or less (almost no effect))
effect on green foxtail (G) (green foxtail [5]; 3 weeks after application): 0 (Herbicidal rate of 5% or less (almost no effect))
herbicidal effect rating, R: persian speedwell (persian speedwell [6]; 320 g/ha): 0 (Herbicidal rate of 5% or less (almost no effect))
herbicidal effect rating, N: redroot pigweed (redroot pigweed; 320 g/ha): 0 (Herbicidal rate of 5% or less (almost no effect))
herbicidal effect rating, O: lambsquarters (lambsquarters [7]; 320 g/ha): 2 (Herbicidal rate of 20% or more and less than 40%)
effect on velvetleaf (M) (velvetleaf [8]; 3 weeks after application): 1 (Herbicidal rate of 5% or more and less than 20%)
Herbicidal effect on B: Japanese bulrush (grade 0-5) (Japanese bulrush; 320 g/ha applied herbicide): 0 (Herbicidal rate of 5% or less (almost no effect))
herbicidal effect rating, K: Italian ryegrass (Italian ryegrass [9]; 320 g/ha): 0 (Herbicidal rate of 5% or less (almost no effect))
herbicidal effect rating, L: windgrass (windgrass [10]; 320 g/ha): 0 (Herbicidal rate of 5% or less (almost no effect))
herbicidal effect on E (rice flat sedge), rating 0-5 (rice flat sedge): 1 (Herbicidal rate of 5% or more and less than 20%)
effect on persian speedwell (R) (persian speedwell [11]; 3 weeks after application): 3 (Herbicidal rate of 40% or more and less than 70%)
herbicidal effect rating, I: wild oat (wild oat [12]; 320 g/ha): 0 (Herbicidal rate of 5% or less (almost no effect))
effect on blackgrass (J) (blackgrass [13]; 3 weeks after application): 0 (Herbicidal rate of 5% or less (almost no effect))
herbicidal effect rating, F: southern crabgrass (southern crabgrass [14]; 320 g/ha): 0 (Herbicidal rate of 5% or less (almost no effect))
herbicidal effect rating, H: barnyard grass (barnyard grass [15]; 320 g/ha): 0 (Herbicidal rate of 5% or less (almost no effect))
effect on barnyard grass (H) (barnyard grass [16]; 3 weeks after application): 0 (Herbicidal rate of 5% or less (almost no effect))
herbicidal effect rating, G: green foxtail (green foxtail [17]; 320 g/ha): 0 (Herbicidal rate of 5% or less (almost no effect))
herbicidal effect rating, P: chickweed (chickweed; 320 g/ha): 0 (Herbicidal rate of 5% or less (almost no effect))
herbicidal effect on H (barnyard grass), rating 0-5 (barnyard grass [18]): 3 (Herbicidal rate of 40% or more and less than 70%)
herbicidal effect rating, J: blackgrass (blackgrass [19]; 320 g/ha): 0 (Herbicidal rate of 5% or less (almost no effect))
herbicidal effect on D (Chinese sprangletop), rating 0-5 (Chinese sprangletop): 3 (Herbicidal rate of 40% or more and less than 70%)
Herbicidal effect on A: late watergrass (grade 0-5) (late watergrass; 320 g/ha applied herbicide): 3 (Herbicidal rate of 40% or more and less than 70%)
effect on wild oat (I) (wild oat [20]; 3 weeks after application): 0 (Herbicidal rate of 5% or less (almost no effect))
effect on southern crabgrass (F) (southern crabgrass [21]; 3 weeks after application): 0 (Herbicidal rate of 5% or less (almost no effect))

CCCC(=O)Oc1c(C)nn(C)c(=O)c1-c1c(-c2ccc(F)cc2OC)sc2cc(Cl)c(Cl)cc12 [5-052]
herbicidal effect on lambsquarters (O) (lambsquarters [1]; three weeks after application): 5 (Herbicidal rate of 90% or more (almost completely withered))
herbicidal effect on Italian ryegrass (K) (Italian ryegrass [2]; three weeks after application): 0 (Herbicidal rate of 5% or less (almost no effect))
Herbicidal effect, C: oval-leafed pondweed (oval-leafed pondweed; [22]): 0 (Herbicidal rate of 5% or less (almost no effect))
herbicidal effect on windgrass (L) (windgrass [3]; three weeks after application): 4 (Herbicidal rate of 70% or more and less than 90%)
M: velvetleaf, herbicidal effect grade (velvetleaf [4]; [22]): 0 (Herbicidal rate of 5% or less (almost no effect))
herbicidal effect on green foxtail (G) (green foxtail [5]; three weeks after application): 3 (Herbicidal rate of 40% or more and less than 70%)
R: persian speedwell, herbicidal effect grade (persian speedwell [6]; [22]): 0 (Herbicidal rate of 5% or less (almost no effect))
N: redroot pigweed, herbicidal effect grade (redroot pigweed; [22]): 2 (Herbicidal rate of 20% or more and less than 40%)
O: lambsquarters, herbicidal effect grade (lambsquarters [7]; [22]): 3 (Herbicidal rate of 40% or more and less than 70%)
herbicidal effect on velvetleaf (M) (velvetleaf [8]; three weeks after application): 4 (Herbicidal rate of 70% or more and less than 90%)
Herbicidal effect, B: Japanese bulrush (Japanese bulrush; [22]): 3 (Herbicidal rate of 40% or more and less than 70%)
K: Italian ryegrass, herbicidal effect grade (Italian ryegrass [9]; [22]): 0 (Herbicidal rate of 5% or less (almost no effect))
L: windgrass, herbicidal effect grade (windgrass [10]; [22]): 0 (Herbicidal rate of 5% or less (almost no effect))
herbicidal effect on rice flat sedge (E) (rice flat sedge): 5 (Herbicidal rate of 90% or more (almost completely withered))
herbicidal effect on persian speedwell (R) (persian speedwell [11]; three weeks after application): 4 (Herbicidal rate of 70% or more and less than 90%)
I: wild oat, herbicidal effect grade (wild oat [12]; [22]): 0 (Herbicidal rate of 5% or less (almost no effect))
herbicidal effect on blackgrass (J) (blackgrass [13]; three weeks after application): 4 (Herbicidal rate of 70% or more and less than 90%)
F: southern crabgrass, herbicidal effect grade (southern crabgrass [14]; [22]): 0 (Herbicidal rate of 5% or less (almost no effect))
H: barnyard grass, herbicidal effect grade (barnyard grass [15]; [22]): 0 (Herbicidal rate of 5% or less (almost no effect))
herbicidal effect on barnyard grass (H) (barnyard grass [16]; three weeks after application): 4 (Herbicidal rate of 70% or more and less than 90%)
G: green foxtail, herbicidal effect grade (green foxtail [17]; [22]): 0 (Herbicidal rate of 5% or less (almost no effect))
P: chickweed, herbicidal effect grade (chickweed; [22]): 3 (Herbicidal rate of 40% or more and less than 70%)
herbicidal effect on barnyard grass (H) (barnyard grass [18]): 5 (Herbicidal rate of 90% or more (almost completely withered))
J: blackgrass, herbicidal effect grade (blackgrass [19]; [22]): 0 (Herbicidal rate of 5% or less (almost no effect))
herbicidal effect on Chinese sprangletop (D) (Chinese sprangletop): 3 (Herbicidal rate of 40% or more and less than 70%)
Herbicidal effect, A: late watergrass (late watergrass; [22]): 0 (Herbicidal rate of 5% or less (almost no effect))
herbicidal effect on wild oat (I) (wild oat [20]; three weeks after application): 0 (Herbicidal rate of 5% or less (almost no effect))
herbicidal effect on southern crabgrass (F) (southern crabgrass [21]; three weeks after application): 0 (Herbicidal rate of 5% or less (almost no effect))
